“And” between values parts separate entries of the source, which are not always exact repeats. Equal values may be shown once.
Tested on: 521955-158-R7-J2-PDC spheroids, viability % test/control
Experiment: Anticancer human tumor 521955-158-R7-J2-PDC patient-derived pancreatic carcinoma cell line growth inhibition [TAK]
Conditions: spheroids with HUVEC and MSC; for viability, T/C: stronger effect = lower value; active = viability on the fitted dose curve at most 10% of control; inactive = the rest
From the text: Combinatorial screen of targeted agents with TAK-243 and ipatasertib in multi-cell type tumor spheroids
A high-throughput screen of multi-cell type tumor spheroids was designed to identify active combinations of targeted small molecules and TAK-243 or ipatasertib. Complex spheroids include a stromal component modeled by human endothelial cells (HUVEC) and fibroblasts modeled by human mesenchymal stem cells (MSCs). The concentration ranges selected for each drug and investigational agent were based upon clinically achievable concentrations if the clinical Cmax of the agent was known.
Compounds. The drugs and investigational agents: TAK-243 (785004), ipatasertib (767898), everolimus (733504), selumetinib (741078), bortezomib (756655), trametinib (758246), ixazomib (758254), vemurafenib (761431), dabrafenib (764134), sapanisertib (764658), alpelisib (765974), and copanlisib (816437), were obtained from the National Cancer Institute (NCI) Developmental Therapeutics Program Chemical Repository. The FDA-approved anticancer drug set is available from the NCI Developmental Therapeutics Program. […] The stock solutions were prepared in dimethyl sulfoxide (DMSO, Sigma-Aldrich, St. Louis, MO, cat. D2650) at 800-fold the tested concentration and stored at -70 degrees C prior to their use. All drugs and investigational agents were tested over a range starting from a high concentration at or near the clinical Cmax and decreasing in half-log increments. If the clinical Cmax for an agent had not been determined, the highest concentration tested was 10 microM.
NCI60 Cell Culture. NCI60 cell lines were obtained from the NCI Developmental Therapeutics Program Tumor Repository. For each lot of cells, the Repository performed Applied Biosystems AmpFLSTR Identifiler testing with PCR amplification to confirm consistency with the published Identifier STR profile for each cell line. Cells were kept in continuous culture for no more than 20 passages. The optimal seeding densities for each of the cell lines at each time point assessed were determined prior to performing the concentration response studies. Briefly, the NCI60 human tumor lines were grown as monolayers in RPMI 1640 medium supplemented with 10% FBS and 2 mmol/L L-glutamine.
An additional 2 lines were from the NCI60 cell line panel including melanomas, MALME-3M and SK-MEL-2. Pooled donor human umbilical vein endothelial cells (HUVEC, Lonza, cat. CC-2519) and human mesenchymal stem cells (hMSC, Lonza, cat. PT-2501) were purchased from Lonza (Walkersville, MD).
PDMR cell lines were grown in complete medium (DC medium): Dulbecco's modified Eagle's medium (DMEM)/F12 supplemented with 5% fetal bovine serum (FBS), 2 mM L-glutamine, 100 U/mL penicillin and 100 µg/ml streptomycin, 0.4 µg/ml hydrocortisone, 10 ng/ml epidermal growth factor (EGF) recombinant human protein, 24 µg/mL adenine, and 0.1 mg/mL primocin. During culture from frozen stock vials, PDMR cells were cultured in the same medium containing 10 µM Y-27632 (see Table 3). The PDCs were cultured in complete DMEM/F12 media without 10 microM Y-27632 dihydrochloride for at least two passages prior to the screen. The pooled donor HUVEC and hMSC were cultured in endothelial cell growth medium 2 (PromoCell, Heidelberg, Germany, cat. C-22011) and mesenchymal stem cell growth medium 2 (PromoCell, cat. C-28009), respectively. For all experiments, HUVEC and hMSC were used at passages </=5.
For the pre-screen, cell seeding densities were determined from a titration spanning the range from 5,000 to 313 cells per well. The mct-spheroids including 60% malignant cells, 25% HUVEC and 15% MSC dispensed as a mixture into U-bottom Ultra-Low Attachment 384-well plates (Corning, NY)
High-throughput Drug Combination Screening.
Prior to their inoculation into 384-well plates, malignant cells, HUVEC, and hMSC were removed from T flasks using TrypLE express (Thermo Fisher Scientific, cat. 12605036) and harvested by centrifugation for 5 min at 233 x g. […]

[1] = curve of first compound, second compound 0.3 µM
[2] = curve of first compound, second compound 0.949 µM
[3] = curve of first compound, second compound 3 µM
[4] = curve of first compound, second compound 9.49 µM
[5] = curve of first compound, second compound 30 µM
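Note: spheroids exposed to compound for 7 days before readout.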

CCCS(=O)(=O)Nc1ccc(F)c(C(=O)c2c[nH]c3ncc(-c4ccc(Cl)cc4)cc23)c1F + CC(C)NCC(C(=O)N1CCN(c2ncnc3c2C(C)CC3O)CC1)c1ccc(Cl)cc1
active: viability, T/C (second compound 30 µM, first compound 10 µM) 5.6% | viability, T/C (second compound 30 µM, first compound 31.6 µM) 5.46% | viability, T/C (second compound 30 µM, first compound 100 µM) 13.1%
21800 nM: IC50 [4]
> 100000 nM: IC50 [1] | IC50 [2] | IC50 [3]
6430 nM: IC50 [5]
inactive: viability, T/C (second compound 0.3 µM, first compound 0.316 µM) 85.9% | viability, T/C (second compound 0.3 µM, first compound 1 µM) 83.5% | viability, T/C (second compound 0.3 µM, first compound 3.16 µM) 85.8% | viability, T/C (second compound 0.3 µM, first compound 10 µM) 108% | viability, T/C (second compound 0.3 µM, first compound 31.6 µM) 69.5% | viability, T/C (second compound 0.3 µM, first compound 100 µM) 81.8% | viability, T/C (second compound 0.949 µM, first compound 0.316 µM) 84.4% | viability, T/C (second compound 0.949 µM, first compound 1 µM) 94.1% | viability, T/C (second compound 0.949 µM, first compound 3.16 µM) 90.9% | viability, T/C (second compound 0.949 µM, first compound 10 µM) 107% | viability, T/C (second compound 0.949 µM, first compound 31.6 µM) 53.6% | viability, T/C (second compound 0.949 µM, first compound 100 µM) 87% | viability, T/C (second compound 3 µM, first compound 0.316 µM) 82.9% | viability, T/C (second compound 3 µM, first compound 1 µM) 89.1% | viability, T/C (second compound 3 µM, first compound 3.16 µM) 105% | viability, T/C (second compound 3 µM, first compound 10 µM) 88.5% | viability, T/C (second compound 3 µM, first compound 31.6 µM) 54% | viability, T/C (second compound 3 µM, first compound 100 µM) 50.5% | viability, T/C (second compound 9.49 µM, first compound 0.316 µM) 85.4% | viability, T/C (second compound 9.49 µM, first compound 1 µM) 107% | viability, T/C (second compound 9.49 µM, first compound 3.16 µM) 99.8% | viability, T/C (second compound 9.49 µM, first compound 10 µM) 73.7% | viability, T/C (second compound 9.49 µM, first compound 31.6 µM) 39.9% | viability, T/C (second compound 9.49 µM, first compound 100 µM) 32.4% | viability, T/C (second compound 30 µM, first compound 0.316 µM) 107% | viability, T/C (second compound 30 µM, first compound 1 µM) 119% | viability, T/C (second compound 30 µM, first compound 3.16 µM) 127%

Cn1cnc2c(F)c(Nc3ccc(Br)cc3Cl)c(C(=O)NOCCO)cc21 + CC(C)NCC(C(=O)N1CCN(c2ncnc3c2C(C)CC3O)CC1)c1ccc(Cl)cc1
108 nM: IC50 [1]
17.4 nM: IC50 [5]
inactive: viability, T/C (second compound 0.3 µM, first compound 0.00949 µM) 71.3% | viability, T/C (second compound 0.3 µM, first compound 0.03 µM) 61.7% | viability, T/C (second compound 0.3 µM, first compound 0.0949 µM) 45.6% | viability, T/C (second compound 0.3 µM, first compound 0.3 µM) 45.5% | viability, T/C (second compound 0.3 µM, first compound 0.949 µM) 28.2% | viability, T/C (second compound 0.3 µM, first compound 3 µM) 13.9% | viability, T/C (second compound 0.949 µM, first compound 0.00949 µM) 76.7% | viability, T/C (second compound 0.949 µM, first compound 0.03 µM) 55.5% | viability, T/C (second compound 0.949 µM, first compound 0.0949 µM) 46.3% | viability, T/C (second compound 0.949 µM, first compound 0.3 µM) 31.3% | viability, T/C (second compound 0.949 µM, first compound 0.949 µM) 25.5% | viability, T/C (second compound 0.949 µM, first compound 3 µM) 9.79% | viability, T/C (second compound 3 µM, first compound 0.00949 µM) 63.9% | viability, T/C (second compound 3 µM, first compound 0.03 µM) 54.7% | viability, T/C (second compound 3 µM, first compound 0.0949 µM) 32.4% | viability, T/C (second compound 3 µM, first compound 0.3 µM) 31.5% | viability, T/C (second compound 3 µM, first compound 0.949 µM) 23.7% | viability, T/C (second compound 3 µM, first compound 3 µM) 9.02% | viability, T/C (second compound 9.49 µM, first compound 0.00949 µM) 61.8% | viability, T/C (second compound 9.49 µM, first compound 0.03 µM) 40.4% | viability, T/C (second compound 9.49 µM, first compound 0.0949 µM) 34% | viability, T/C (second compound 9.49 µM, first compound 0.3 µM) 27.5% | viability, T/C (second compound 9.49 µM, first compound 0.949 µM) 25.7% | viability, T/C (second compound 9.49 µM, first compound 3 µM) 10.8% | viability, T/C (second compound 30 µM, first compound 0.00949 µM) 56.6% | viability, T/C (second compound 30 µM, first compound 0.03 µM) 43.3% | viability, T/C (second compound 30 µM, first compound 0.0949 µM) 34.6% | viability, T/C (second compound 30 µM, first compound 0.3 µM) 30% | viability, T/C (second compound 30 µM, first compound 0.949 µM) 17.6%
65 nM: IC50 [2]
active: viability, T/C (second compound 30 µM, first compound 3 µM) 7.96%
33.9 nM: IC50 [3]
19.9 nM: IC50 [4]

CC(C)CC(NC(=O)C(Cc1ccccc1)NC(=O)c1cnccn1)B(O)O (configuration not stated)
active: viability, T/C (compound 0.01 µM) 4.87% and 2.64%
inactive: viability, T/C (compound 31.6 pM) 94% and 103% | viability, T/C (compound 0.0001 µM) 82.3% and 99.8% | viability, T/C (compound 0.000316 µM) 96.1% and 93.2% | viability, T/C (compound 0.001 µM) 88.4% and 100% | viability, T/C (compound 0.00316 µM) 103% and 93%
5.54 nM and 5.47 nM: IC50 (curve of compound)

Source: PubChem BioAssay AID2060351 (Molecular Pharmacology Branch, DTP, NCI, 2025)
